{"source": "patent US7229762B2", "about": "“Proteomic screening for redox state dependent protein—protein interactions” (Duke University Medical Center, priority 2003, dated 2007)", "key": {"AIF/MIP-1α interaction": {"biological_target": "T1, AIF/MIP-1α interaction (UniProt O95831+P10855)", "T1 construct": "The entire open reading frame of AIF was derived from I.M.A.G.E. clones 1520292 and 25192; expressed in transfected cells; host or cells: Saccharomyces cerevisiae Δyhb1", "T1 sequence (O95831 102-613)": "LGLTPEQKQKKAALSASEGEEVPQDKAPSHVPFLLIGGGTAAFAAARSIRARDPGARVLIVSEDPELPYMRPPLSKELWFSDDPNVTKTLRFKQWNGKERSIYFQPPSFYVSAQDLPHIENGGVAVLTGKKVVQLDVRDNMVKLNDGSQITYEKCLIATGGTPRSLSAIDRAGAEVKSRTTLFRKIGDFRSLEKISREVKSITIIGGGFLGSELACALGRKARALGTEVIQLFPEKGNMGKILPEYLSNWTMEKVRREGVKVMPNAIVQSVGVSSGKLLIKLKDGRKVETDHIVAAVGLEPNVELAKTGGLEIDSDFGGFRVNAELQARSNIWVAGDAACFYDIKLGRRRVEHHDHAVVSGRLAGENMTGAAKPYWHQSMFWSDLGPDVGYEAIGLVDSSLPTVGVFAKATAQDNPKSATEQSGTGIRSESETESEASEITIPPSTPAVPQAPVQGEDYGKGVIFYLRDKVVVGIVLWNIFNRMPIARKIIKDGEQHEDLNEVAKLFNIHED", "T1 sequence (P10855 24-92)": "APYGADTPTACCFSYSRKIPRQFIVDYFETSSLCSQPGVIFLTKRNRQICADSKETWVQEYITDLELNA", "assay": "Modified yeast two-hybrid, NO-dependent growth of AIF/MIP-1α clone", "assay_type": "cell-based", "details": "200 μM DETA-NO, 72 hrs", "method": "Yeast (Δyhb1) were transformed with Gal4 BD-AIF (Bait) and Gal4 AD-MIP-1α (Prey). (A) Robust growth of the AIF/MIP-1α clone requires NO (single asterisk, P<0.001 versus AIF/MIP-1α without NO) (n=6). […] Cells were grown in His-Trp-Leu-deficient medium at 30° C. for 72 hrs with or without 200 μM DETA-NO. (B) β-galactosidase activities in samples shown in A (single asterisk, P<0.001 vs. without NO, n=4).\nTo extend the generality of our findings, 2.5 million transformants were screened from our macrophage cDNA library for NO-dependent interactions, using apoptosis-inducing factor (AIF) as bait. AIF is implicated in cell death that is independent of caspase-3, and is not known to be regulated by NO (Lipton et al., 2002). […] One of these clones contained the entire cDNA sequence of the chemokine, macrophage inflammatory protein-1 alpha (MIP-1α). Since this clone contained a few extra amino acids derived from a linker sequence, the full length MIP-1α coding sequence was amplified by PCR and cloned into the pGAD 10 vector, whose NO-dependent interaction with AIF was verified."}, "ASM": {"biological_target": "T2, ASM (Homo sapiens, UniProt P17405)", "T2 sequence (P17405 47-631)": "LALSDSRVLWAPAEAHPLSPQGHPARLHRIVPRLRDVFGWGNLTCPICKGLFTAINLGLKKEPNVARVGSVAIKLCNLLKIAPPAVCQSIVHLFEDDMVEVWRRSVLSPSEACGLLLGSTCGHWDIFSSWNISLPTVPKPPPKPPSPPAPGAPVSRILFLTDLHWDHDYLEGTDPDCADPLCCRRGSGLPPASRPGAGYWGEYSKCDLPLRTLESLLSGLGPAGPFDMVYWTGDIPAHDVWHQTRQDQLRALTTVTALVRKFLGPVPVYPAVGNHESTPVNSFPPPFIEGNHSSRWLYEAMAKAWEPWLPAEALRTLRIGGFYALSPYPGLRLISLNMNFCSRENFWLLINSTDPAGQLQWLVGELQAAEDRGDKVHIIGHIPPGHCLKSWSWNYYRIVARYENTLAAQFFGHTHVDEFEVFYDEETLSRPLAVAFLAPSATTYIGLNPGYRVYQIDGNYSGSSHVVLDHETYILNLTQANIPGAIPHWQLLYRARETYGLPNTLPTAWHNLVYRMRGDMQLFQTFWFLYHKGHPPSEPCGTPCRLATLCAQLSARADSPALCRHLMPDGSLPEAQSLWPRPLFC", "assay": "ASM activity assay of purified ASM (BODIPY FL C5-sphingomyelin)", "assay_type": "biochemical", "details": "DETA-NO 50 μM–200 μM, 30 or 60 min, pH 5.0", "method": "(§1) ASM activity was measured essentially as described (E. Romiti et al., 2000), using BODIPY FL C5-sphingomyelin substrate (1.5 nmol) in assay buffer: 250 mM sodium acetate, pH 5.0, 10 mM EDTA. To assay Zn-stimulated ASM activity, 0.1 mM ZnCl was used instead of 10 mM EDTA. 30 μl sample was incubated with 70 μl assay buffer at 37° C. for 1–3 hours. Reactions were terminated by adding 1.0 ml heptane and 0.29 ml isopropyl alcohol. Phases were separated by adding 0.23 ml H2O. The heptane phase was washed with 0.23 ml H2O. The fluorescence of the organic phase (containing BODIPY FL-ceramide) was assayed at 505/514 nm excitation/emission wavelengths (slit width=2.5).\nPurified ASM protein (3.4 μg) was treated with DETA-NO (50 μM–200 μM for 30 or 60 min) and ASM activity was measured at pH 5.0 (n=3)."}, "[1]": {"biological_target": "T3, caspase-3/ASM interaction (Homo sapiens, UniProt P42574)", "T3 sequence (P42574 29-277)": "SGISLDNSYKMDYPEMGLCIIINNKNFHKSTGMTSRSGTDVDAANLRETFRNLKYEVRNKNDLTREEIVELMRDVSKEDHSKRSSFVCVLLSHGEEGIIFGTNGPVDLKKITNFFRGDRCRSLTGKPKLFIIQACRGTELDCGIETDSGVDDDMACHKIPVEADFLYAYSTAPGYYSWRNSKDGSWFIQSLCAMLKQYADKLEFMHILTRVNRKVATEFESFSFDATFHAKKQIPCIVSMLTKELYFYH", "T3 sequence (P17405 47-631 partner)": "T2 sequence (P17405 47-631)", "assay": "In vitro ASM/caspase-3 co-precipitation, ASM activity in caspase-3 IPs", "assay_type": "binding", "details": "20 μM DETA-NO 60 min, then ASM 37° C. 2 hrs", "method": "as §1, with “width=2.5). […]” for “width=2.5).”\nPurified caspase-3 was incubated in the presence or absence 20 μM DETA-NO for 60 min (30 nM steady state NO), followed by incubation with ASM at 37° C. for 2 hrs, and IP with caspase-3 antibody. […] The interaction of caspase-3 with ASM was measured as ASM activity in caspase-3 IP's (pH 5.0). […]\nTo determine the relevant target(s) of NO, ASM/caspase-3 co-precipitations were carried out following NO treatment of each partner alone. Using an ASM activity assay, the amounts of ASM that could be precipitated with a procaspase-3 antibody was assessed from co-incubates (2 hours at 37° C.) of ASM (20 pmol) and caspase-3 in limiting amounts (2.5 pmol). […]"}, "[2]": {"biological_target": "T4, caspase-3 interaction with iNOS / ASM (Homo sapiens, UniProt P42574)", "T4 construct": "expressed in transfected cells; host or cells: Saccharomyces cerevisiae CG-1945 Δyhb1", "T4 sequence (P42574 1-277)": "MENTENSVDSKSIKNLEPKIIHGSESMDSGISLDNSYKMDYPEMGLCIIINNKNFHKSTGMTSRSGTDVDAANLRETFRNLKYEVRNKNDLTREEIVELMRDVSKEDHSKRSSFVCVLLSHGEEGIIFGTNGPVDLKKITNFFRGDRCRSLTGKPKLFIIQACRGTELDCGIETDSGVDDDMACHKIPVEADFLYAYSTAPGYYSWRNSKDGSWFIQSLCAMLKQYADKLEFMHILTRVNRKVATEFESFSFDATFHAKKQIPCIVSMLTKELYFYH", "assay": "Modified yeast two-hybrid, NO-dependent growth of iNOS/caspase-3 and ASM/caspase-3 clones", "assay_type": "cell-based", "details": "iNOS/caspase-3 clone, presence vs absence of NO", "method": "Yeast (Δyhb1) were transformed with Gal4 BD-caspase-3 plasmid (bait) and a cDNA library (Gal4 AD prey plasmids) derived from activated (NO generating) macrophages. Screening was performed as described in the methods below. DETA-NO at less than 300 μM generates NO without inhibiting yeast growth (monitored by absorbance at 600 nm). Steady state NO concentrations are maintained at ˜100 nM–1 μM range for several days as measured with an NO electrode (not shown).\nAuxotrophic selection was carried out on agar plates (15 cm in diameter) enriched in 50 mM phosphate buffer (pH 7.2; His-Trp-Leu (triple)-deficient buffered medium (TDBM)). […] Prey plasmids were isolated from positive yeast clones and then re-introduced into the bait strain to confirm bait-prey interactions. Method 2: After cells were seeded on 1.5% agar they were covered with 3% low melting point agar, which in turn was layered with culture medium. NO donors (e.g. DETA-NO; 300 μM final concentration) were added to the liquid layer every 24 hours. Colonies are grown for 4 days as described in ref 9. Method 3:\nAuxotrophic selection was carried out in TDBM. Transformation with the cDNA library was followed by overnight growth in medium deficient in tryptophan and leucine. Transformants were then grown for 3 days in His-deficient medium supplemented with DETA-NO (typically 200 μM final concentration). […]"}}}
{"compound": "[N]=O", "note": "[NO, nitric oxide]", "values": [{"measurement": "increase in growth in the presence of NO", "setting": "AIF/MIP-1α interaction", "result": 8, "unit": "fold"}, {"measurement": "effect on ASM activity", "setting": "ASM", "result": "no direct effect on ASM activity"}, {"measurement": "binding of ASM to caspase-3 pretreated with NO", "setting": "[1]", "result": "induces binding of ASM"}, {"measurement": "NO-dependent growth of iNOS transformant", "setting": "[2]", "result": "~9", "unit": "fold"}]}
